“And” between values parts separate entries of the source, which are not always exact repeats. Identical values can stand only once.
Legend:
[1] = HPLC analysis of stability of the isolated radiometal complex; type: physicochemical; settings: room temperature
Procedure: The major radioactive HPLC peak, eluting with a retention time of 14.1 minutes, was collected. […] HPLC conditions: Solvent A=56 mM NH4OAc in water; Solvent B═CH3CN. Flow rate=1 mL/min on 4.6×250 mm C18 reverse-phase column. Linear gradient conditions: 5% B at zero minutes, ramping to 25% B at 25 minutes, then ramping to 60% B at 27 minutes and 100% B at 30 minutes.
HPLC-purified ^64Cu-CY4-036 was removed from the HPLC solvents by solid-phase extraction. A C18 Sep-Pak Light solid phase extraction cartridge (Millipore, Inc.) was conditioned by washing with ethanol followed by water. The HPLC-purified ^64Cu-CY4-036 was loaded onto the C18 Sep-Pak after dilution with water to 5% acetonitrile, the Sep-Pak was washed with 20 mL water, and the ^64Cu-CY4-036 product recovered by fractional elution with ethanol. The resulting ethanol solution of ^64Cu-CY4-036 was evaporated to dryness under a stream of N2 at room temperature, and the ^64Cu-CY4-036 was reconstituted in water. Analytical HPLC confirmed the radiochemical purity, and stability, of the isolated ^64Cu-CY4-036 product. HPLC conditions: Solvent A=53 mM NH4OAc in water; Solvent B═CH3CN. Flow rate=1 mL/min on 4.6×250 mm C18 reverse-phase analytical column. Linear gradient conditions: 5% B at zero minutes, ramping to 25% B at 25 minutes, then ramping to 60% B at 27 minutes and 100% B at 30 minutes.

[2] = system: folate-receptor-positive human KB cell tumor xenografts; test: Biodistribution of 111In radiotracer in KB tumor-bearing athymic mice after intravenous administration; type: in vivo; settings: for Percentage of Injected 111In Dose Per Organ (Tissue): Muscle: muscle assumed 42% of body mass
Procedure: Our primary animal model for evaluation of the biodistribution and pharmacokinetics of folate-receptor-targeted radiopharmaceuticals has been athymic mice bearing subcutaneously implanted folate-receptor-positive human KB cell tumors. […] After 3 weeks on folate-free diet, mouse serum folate levels drop to 25±7 nM from the initial 720±260 nM serum folate level when the animals are fed normal rodent chow. This dietary intervention is believed to be a reasonable manipulation of the animal model, since the mice would have serum folate levels only slightly higher than the folate concentration of normal human serum. Thus, in these mouse biodistribution studies the radiotracer is competing for tumor folate receptors with physiologically relevant concentrations of endogenous unlabeled serum folate.
The substantial retention of ^111In in the kidneys is fully consistent with the binding of ^111In-CYK4-013 to tissue folate receptors, since the renal proximal tubule is a known normal tissue site of folate receptor expression. […] The behavior of the ^111In-CYK4-013 radiopharmaceutical in this animal model (Table 2) is very similar to that observed for ^111In-DTPA-Folate (Table 3).
Results. Similar to ^111In-DTPA-Folate, ^111In-CYK4-013 selectively localized in the folate-receptor-positive tumor xenografts, and afforded prolonged tumor retention of ^111In (5.4±0.8; 5.5±1.1; and 3.6±0.6% ID/g at 1 hour, 4 hours, and 24 hours, respectively) (Table 2). […] Blockable binding was also observed in the kidneys, where the folate receptor occurs in the proximal tubules.

[3] = 1 Hour after intravenous administration
[4] = 4 Hours after intravenous administration
[5] = 4 Hours, Blocked: co-injection of folic acid dihydrate 4.1 ± 0.4 mg/kg
[6] = 24 Hours after intravenous administration

- time the isolated HPLC peak remains stable [1]: at least 7 days
- Percentage of Injected 111In Dose Per Gram (Tissue Wet Mass): Blood [2, 3]: 0.18 ± 0.01 % ID/g
- Percentage of Injected 111In Dose Per Gram (Tissue Wet Mass): Heart [2, 3]: 3.5 ± 0.4 % ID/g
- Percentage of Injected 111In Dose Per Gram (Tissue Wet Mass): Kidney (one) [2, 3]: 61 ± 5 % ID/g
- Percentage of Injected 111In Dose Per Gram (Tissue Wet Mass): Liver & Gall Bladder [2, 3]: 4.3 ± 0.7 % ID/g
- Percentage of Injected 111In Dose Per Gram (Tissue Wet Mass): Lungs [2, 3]: 1.5 ± 0.2 % ID/g
- Percentage of Injected 111In Dose Per Gram (Tissue Wet Mass): Muscle [2, 3]: 3.5 ± 0.5 % ID/g
- Percentage of Injected 111In Dose Per Gram (Tissue Wet Mass): Spleen [2, 3]: 0.31 ± 0.09 % ID/g
- Percentage of Injected 111In Dose Per Gram (Tissue Wet Mass): Stomach, Intestines & Contents [2, 3]: 1.7 ± 0.2 % ID/g
- Percentage of Injected 111In Dose Per Gram (Tissue Wet Mass): Tumor [2, 3]: 5.4±0.8 % ID/g
- Percentage of Injected 111In Dose Per Organ (Tissue): Liver & Gall Bladder [2, 3]: 6.8 ± 1.3 Percentage of Injected 111In D
- Percentage of Injected 111In Dose Per Organ (Tissue): Stomach, Intestines & Contents [2, 3]: 5.8 ± 0.5 Percentage of Injected 111In D
- Tumor/blood ratio [2, 3]: 30 ± 5
- Tumor/kidney ratio [2, 3]: 0.088 ± 0.013
- Tumor/liver ratio [2, 3]: 1.3 ± 0.4
- Tumor/muscle ratio [2, 3]: 1.6 ± 0.4
- Percentage of Injected 111In Dose Per Gram (Tissue Wet Mass): Blood [2, 4]: 0.050 ± 0.009 % ID/g
- Percentage of Injected 111In Dose Per Gram (Tissue Wet Mass): Heart [2, 4]: 2.9 ± 0.9 % ID/g
- Percentage of Injected 111In Dose Per Gram (Tissue Wet Mass): Kidney (one) [2, 4]: 81 ± 7 % ID/g
- Percentage of Injected 111In Dose Per Gram (Tissue Wet Mass): Liver & Gall Bladder [2, 4]: 1.9 ± 0.6 % ID/g
- Percentage of Injected 111In Dose Per Gram (Tissue Wet Mass): Lungs [2, 4]: 1.4 ± 0.3 % ID/g
- Percentage of Injected 111In Dose Per Gram (Tissue Wet Mass): Muscle [2, 4]: 2.8 ± 0.8 % ID/g
- Percentage of Injected 111In Dose Per Gram (Tissue Wet Mass): Spleen [2, 4]: 0.29 ± 0.07 % ID/g
- Percentage of Injected 111In Dose Per Gram (Tissue Wet Mass): Stomach, Intestines & Contents [2, 4]: 1.5 ± 0.9 % ID/g
- Percentage of Injected 111In Dose Per Gram (Tissue Wet Mass): Tumor [2, 4]: 5.5±1.1 % ID/g and 5.6 ± 1.1 % ID/g
- Percentage of Injected 111In Dose Per Organ (Tissue): Liver & Gall Bladder [2, 4]: 3.0 ± 1.0 Percentage of Injected 111In D
- Percentage of Injected 111In Dose Per Organ (Tissue): Stomach, Intestines & Contents [2, 4]: 5.4 ± 0.8 Percentage of Injected 111In D
- Tumor/blood ratio [2, 4]: 111 ± 11
- Tumor/kidney ratio [2, 4]: 0.069 ± 0.013
- Tumor/liver ratio [2, 4]: 3.0 ± 0.5
- Tumor/muscle ratio [2, 4]: 2.1 ± 0.2
- Percentage of Injected 111In Dose Per Organ (Tissue): Muscle [2, 4]: 33 ± 9 Percentage of Injected 111In D
- Percentage of Injected 111In Dose Per Gram (Tissue Wet Mass): Blood [2, 5]: 0.016 ± 0.010 % ID/g
- Percentage of Injected 111In Dose Per Gram (Tissue Wet Mass): Heart [2, 5]: 0.015 ± 0.010 % ID/g
- Percentage of Injected 111In Dose Per Gram (Tissue Wet Mass): Kidney (one) [2, 5]: 0.90 ± 0.59 % ID/g
- Percentage of Injected 111In Dose Per Gram (Tissue Wet Mass): Liver & Gall Bladder [2, 5]: 0.051 ± 0.029 % ID/g
- Percentage of Injected 111In Dose Per Gram (Tissue Wet Mass): Lungs [2, 5]: 0.041 ± 0.027 % ID/g
- Percentage of Injected 111In Dose Per Gram (Tissue Wet Mass): Muscle [2, 5]: 0.080 ± 0.057 % ID/g
- Percentage of Injected 111In Dose Per Gram (Tissue Wet Mass): Spleen [2, 5]: 0.028 ± 0.017 % ID/g
- Percentage of Injected 111In Dose Per Gram (Tissue Wet Mass): Stomach, Intestines & Contents [2, 5]: 1.7 ± 1.1 % ID/g
- Percentage of Injected 111In Dose Per Organ (Tissue): Stomach, Intestines & Contents [2, 5]: 4.6 ± 2.8 Percentage of Injected 111In D
- Tumor/blood ratio [2, 5]: 7.5 ± 2.4
- Tumor/kidney ratio [2, 5]: 0.12 ± 0.03
- Tumor/liver ratio [2, 5]: 2.2 ± 0.6
- Tumor/muscle ratio [2, 5]: 1.5 ± 0.7
- Percentage of Injected 111In Dose Per Gram (Tissue Wet Mass): Tumor ([2]; 4 Hours, Blocked: co-injection of folic acid dihydrate 4.1 ± 0.4 mg/kg, 0.4 mg/kg): 0.12±0.07 % ID/g
- Percentage of Injected 111In Dose Per Organ (Tissue): Muscle [2, 5]: 1.0 ± 0.7 Percentage of Injected 111In D
- Percentage of Injected 111In Dose Per Gram (Tissue Wet Mass): Blood [2, 6]: 0.035 ± 0.002 % ID/g
- Percentage of Injected 111In Dose Per Gram (Tissue Wet Mass): Heart [2, 6]: 1.2 ± 0.5 % ID/g
- Percentage of Injected 111In Dose Per Gram (Tissue Wet Mass): Kidney (one) [2, 6]: 105 ± 7 % ID/g
- Percentage of Injected 111In Dose Per Gram (Tissue Wet Mass): Liver & Gall Bladder [2, 6]: 1.2 ± 0.6 % ID/g
- Percentage of Injected 111In Dose Per Gram (Tissue Wet Mass): Lungs [2, 6]: 0.72 ± 0.21 % ID/g
- Percentage of Injected 111In Dose Per Gram (Tissue Wet Mass): Muscle [2, 6]: 1.9 ± 0.6 % ID/g
- Percentage of Injected 111In Dose Per Gram (Tissue Wet Mass): Spleen [2, 6]: 0.27 ± 0.08 % ID/g
- Percentage of Injected 111In Dose Per Gram (Tissue Wet Mass): Stomach, Intestines & Contents [2, 6]: 1.2 ± 0.2 % ID/g
- Percentage of Injected 111In Dose Per Gram (Tissue Wet Mass): Tumor [2, 6]: 3.6±0.6 % ID/g
- Percentage of Injected 111In Dose Per Organ (Tissue): Liver & Gall Bladder [2, 6]: 1.7 ± 0.9 Percentage of Injected 111In D
- Percentage of Injected 111In Dose Per Organ (Tissue): Stomach, Intestines & Contents [2, 6]: 3.3 ± 0.6 Percentage of Injected 111In D
- Tumor/blood ratio [2, 6]: 105 ± 20
- Tumor/kidney ratio [2, 6]: 0.035 ± 0.008
- Tumor/liver ratio [2, 6]: 3.7 ± 1.4
- Tumor/muscle ratio [2, 6]: 2.0 ± 0.6
- primary whole-body clearance pathway ([2]; athymic mice, intravenous administration): Urinary excretion
SMILES: Nc1nc(O)c2nc(CNc3ccc(C(=O)NCCOCCOCCNC(=O)CN(CCN(CCN(CC(=O)O)CC(=O)O)CC(=O)O)CC(=O)O)cc3)cnc2n1.[111In+3] [^111In-CYK4-013]
- Percentage of Injected 111In Dose Per Organ (Tissue): Blood [2, 3]: 0.29 ± 0.003 Percentage of Injected 111In D
- Percentage of Injected 111In Dose Per Organ (Tissue): Heart [2, 3]: 0.51 ± 0.09 Percentage of Injected 111In D
- Percentage of Injected 111In Dose Per Organ (Tissue): Kidney (one) [2, 3]: 15.3 ± 1.2 Percentage of Injected 111In D
- Percentage of Injected 111In Dose Per Organ (Tissue): Lungs [2, 3]: 0.69 ± 0.06 Percentage of Injected 111In D
- Percentage of Injected 111In Dose Per Organ (Tissue): Spleen [2, 3]: 0.063 ± 0.016 Percentage of Injected 111In D
- Percentage of Injected 111In Dose Per Organ (Tissue): Tumor [2, 3]: 0.78 ± 0.47 Percentage of Injected 111In D
- Percentage of Injected 111In Dose Per Organ (Tissue): Muscle [2, 3]: 43.6 ± 4.1 Percentage of Injected 111In D
- Percentage of Injected 111In Dose Per Organ (Tissue): Blood [2, 4]: 0.078 ± 0.010 Percentage of Injected 111In D
- Percentage of Injected 111In Dose Per Organ (Tissue): Heart [2, 4]: 0.41 ± 0.08 Percentage of Injected 111In D
- Percentage of Injected 111In Dose Per Organ (Tissue): Kidney (one) [2, 4]: 20.2 ± 1.6 Percentage of Injected 111In D
- Percentage of Injected 111In Dose Per Organ (Tissue): Lungs [2, 4]: 0.60 ± 0.01 Percentage of Injected 111In D
- Percentage of Injected 111In Dose Per Organ (Tissue): Spleen [2, 4]: 0.049 ± 0.012 Percentage of Injected 111In D
- Percentage of Injected 111In Dose Per Organ (Tissue): Tumor [2, 4]: 0.46 ± 0.26 Percentage of Injected 111In D
- Percentage of Injected 111In Dose Per Organ (Tissue): Blood [2, 5]: 0.025 ± 0.015 Percentage of Injected 111In D
- Percentage of Injected 111In Dose Per Organ (Tissue): Heart [2, 5]: 0.0023 ± 0.0016 Percentage of Injected 111In D
- Percentage of Injected 111In Dose Per Organ (Tissue): Kidney (one) [2, 5]: 0.23 ± 0.15 Percentage of Injected 111In D
- Percentage of Injected 111In Dose Per Organ (Tissue): Liver & Gall Bladder [2, 5]: 0.074 ± 0.044 Percentage of Injected 111In D
- Percentage of Injected 111In Dose Per Organ (Tissue): Lungs [2, 5]: 0.0082 ± 0.0051 Percentage of Injected 111In D
- Percentage of Injected 111In Dose Per Organ (Tissue): Spleen [2, 5]: 0.0049 ± 0.0029 Percentage of Injected 111In D
- Percentage of Injected 111In Dose Per Organ (Tissue): Tumor [2, 5]: 0.0094 ± 0.0061 Percentage of Injected 111In D
- Percentage of Injected 111In Dose Per Organ (Tissue): Blood [2, 6]: 0.055 ± 0.002 Percentage of Injected 111In D
- Percentage of Injected 111In Dose Per Organ (Tissue): Heart [2, 6]: 0.18 ± 0.06 Percentage of Injected 111In D
- Percentage of Injected 111In Dose Per Organ (Tissue): Kidney (one) [2, 6]: 26.8 ± 2.7 Percentage of Injected 111In D
- Percentage of Injected 111In Dose Per Organ (Tissue): Lungs [2, 6]: 0.34 ± 0.03 Percentage of Injected 111In D
- Percentage of Injected 111In Dose Per Organ (Tissue): Spleen [2, 6]: 0.055 ± 0.017 Percentage of Injected 111In D
- Percentage of Injected 111In Dose Per Organ (Tissue): Tumor [2, 6]: 0.42 ± 0.4 Percentage of Injected 111In D
- Percentage of Injected 111In Dose Per Organ (Tissue): Muscle [2, 6]: 23.1 ± 7.0 Percentage of Injected 111In D
